Test results reported in publication PMC9697198, “Carbonic Anhydrase Inhibition Activities of Schiff’s Bases Based on Quinazoline-Linked Benzenesulfonamide” (Molecules, 2022).
Values joined by “and” are separate entries in the source; they are usually repeats but may differ in a detail not shown here. Equal values may be shown once.

Key:
hCA I = hCA I (Homo sapiens, UniProt P00915); test: hCA I inhibition, stopped-flow assay; assay type: biochemical; settings: stopped-flow technique; mean from three different assays, errors ±5–10%
hCA II = hCA II (Homo sapiens, UniProt P00918); test: hCA II inhibition, stopped-flow assay; assay type: biochemical; settings: stopped-flow technique; mean from three different assays, errors ±5–10%
hCA XII = hCA XII (Homo sapiens, UniProt O43570); test: hCA XII inhibition, stopped-flow assay; assay type: biochemical; settings: for Selectivity Analysis hCA II/XII / Selectivity Analysis hCA I/XII: selectivity index (SI); for Selectivity Analysis hCA II/XII: ratio of Ki hCA II to Ki hCA XII; for Selectivity Analysis hCA I/XII: ratio of Ki hCA I to Ki hCA XII; for Ki: stopped-flow technique, mean from three different assays, errors ±5–10%
hCA IX = hCA IX (Homo sapiens, UniProt Q16790); test: hCA IX inhibition, stopped-flow assay; assay type: biochemical; settings: for Selectivity Analysis hCA I/IX / Selectivity Analysis hCA II/IX: selectivity index (SI); for Selectivity Analysis hCA I/IX: ratio of Ki hCA I to Ki hCA IX; for Selectivity Analysis hCA II/IX: ratio of Ki hCA II to Ki hCA IX; for Ki: stopped-flow technique, mean from three different assays, errors ±5–10%

Sequence of hCA I (P00915 whole entry): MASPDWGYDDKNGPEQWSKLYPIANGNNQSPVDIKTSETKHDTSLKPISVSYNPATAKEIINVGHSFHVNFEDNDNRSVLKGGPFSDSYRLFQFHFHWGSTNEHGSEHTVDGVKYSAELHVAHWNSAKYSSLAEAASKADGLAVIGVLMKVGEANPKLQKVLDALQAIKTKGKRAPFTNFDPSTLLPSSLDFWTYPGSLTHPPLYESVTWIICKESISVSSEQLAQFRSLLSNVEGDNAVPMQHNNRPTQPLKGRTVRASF
Sequence of hCA XII (O43570 25-354): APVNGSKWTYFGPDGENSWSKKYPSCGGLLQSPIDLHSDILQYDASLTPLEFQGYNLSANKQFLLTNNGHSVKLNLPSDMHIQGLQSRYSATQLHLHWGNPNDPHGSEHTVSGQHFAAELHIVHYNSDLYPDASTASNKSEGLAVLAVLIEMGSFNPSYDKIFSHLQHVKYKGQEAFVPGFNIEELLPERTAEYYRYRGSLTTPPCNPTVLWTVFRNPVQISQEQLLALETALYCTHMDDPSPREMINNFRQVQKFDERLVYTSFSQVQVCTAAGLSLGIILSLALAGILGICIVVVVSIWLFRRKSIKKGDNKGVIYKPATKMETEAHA

| Structure (SMILES) | Ki (hCA I) [nM] | Ki (hCA II) [nM] | Selectivity Analysis hCA II/XII (hCA XII) | melting point [°C] | Selectivity Analysis hCA I/IX (hCA IX) | Selectivity Analysis hCA II/IX (hCA IX) | Ki (hCA IX) | Selectivity Analysis hCA I/XII (hCA XII) | Ki (hCA XII) [nM] |
| --- | --- | --- | --- | --- | --- | --- | --- | --- | --- |
| NS(=O)(=O)c1ccc(CCn2c(S)nc3ccccc3c2=O)cc1 [Compound 1, 4-(2-(2-mercapto-4-oxoquinazolin-3(4H)-yl)ethyl)benzenesulfonamide] | 31.5 | 0.62 | – | – | – | – | – | – | – |
| CCOC(=O)CSc1nc2ccccc2c(=O)n1CCc1ccc(S(N)(=O)=O)cc1 [Compound 2, Ethyl 2-((4-oxo-3-(4-sulfamoylphenethyl)-3,4-dihydroquinazolin-2-yl)thio)acetate] | – | 16.9 to 21.3 | 0.61 | 210 to 211 | – | – | – | – | – |
| NNC(=O)CSc1nc2ccccc2c(=O)n1CCc1ccc(S(N)(=O)=O)cc1 [Compound 3, 4-(2-(2-((2-Hydrazineyl-2-oxoethyl)thio)-4-oxoquinazolin-3(4H)-yl)ethyl)benzenesulfonamide] | 87.6 | 16.9 | 3.12 | 253 to 254 | 1.68 | 0.32 | 52.1 nM | 16.22 | 5.4 |
| NS(=O)(=O)c1ccc(CCn2c(SCC(=O)N/N=C/c3ccccc3)nc3ccccc3c2=O)cc1 [Compound 4, 4-(2-(2-((2-(2-Benzylidenehydrazineyl)-2-oxoethyl)thio)-4-oxoquinazolin-3(4H)-yl)ethyl)benzenesulfonamide] | 152 | 52.6 | – | 296 to 298 | – | – | 61.7 nM | – | 38.4 |
| NS(=O)(=O)c1ccc(CCn2c(SCC(=O)NN=Cc3ccccc3Cl)nc3ccccc3c2=O)cc1 [Compound 5, 4-(2-(2-((2-(2-(2-Chlorobenzylidene)hydrazineyl)-2-oxoethyl)thio)-4-oxoquinazolin-3(4H)-yl)ethyl)benzenesulfonamide] | 940 | 251 | 5.45 | 288 to 290 | 35.6 | 9.51 | 26.4 nM | 20.39 | 46.1 |
| NS(=O)(=O)c1ccc(CCn2c(SCC(=O)NN=Cc3ccc(Cl)cc3)nc3ccccc3c2=O)cc1 [Compound 6, 4-(2-(2-((2-(2-(4-Chlorobenzylidene)hydrazineyl)-2-oxoethyl)thio)-4-oxoquinazolin-3(4H)-yl)ethyl)benzenesulfonamide] | 568 | 127 | 1.87 | 288 to 289 | 6.37 | 1.42 | 88.6 nM and 89.1 nM | 8.37 | 67.8 |
| NS(=O)(=O)c1ccc(CCn2c(SCC(=O)NN=Cc3ccc(Cl)cc3Cl)nc3ccccc3c2=O)cc1 [Compound 7, 4-(2-(2-((2-(2-(2,4-Dichlorobenzylidene)hydrazineyl)-2-oxoethyl)thio)-4-oxoquinazolin-3(4H)-yl)ethyl)benzenesulfonamide] | 2350 | 433 | 4.84 | 304 to 305 | 107 | 19.67 | 22 nM | 26.33 | 89.4 |
| NS(=O)(=O)c1ccc(CCn2c(SCC(=O)NN=Cc3ccc(Cl)c(Cl)c3)nc3ccccc3c2=O)cc1 [Compound 8, 4-(2-(2-((2-(2-(3,4-Dichlorobenzylidene)hydrazineyl)-2-oxoethyl)thio)-4-oxoquinazolin-3(4H)-yl)ethyl)benzenesulfonamide] | 1830 | 325 | 5.12 | 271 to 272 | 52.5 | 9.33 | 34.8 nM | 28.81 | 63.4 |
| NS(=O)(=O)c1ccc(CCn2c(SCC(=O)NN=Cc3c(Cl)cccc3Cl)nc3ccccc3c2=O)cc1 [Compound 9, 4-(2-(2-((2-(2-(2,6-Dichlorobenzylidene)hydrazineyl)-2-oxoethyl)thio)-4-oxoquinazolin-3(4H)-yl)ethyl)benzenesulfonamide] | 2260 | 165 | 2.95 | 296 to 297 | 45.85 | 3.35 | 49.2 nM | 40.35 | 55.9 |
| NS(=O)(=O)c1ccc(CCn2c(SCC(=O)NN=Cc3ccccc3F)nc3ccccc3c2=O)cc1 [Compound 10, 4-(2-(2-((2-(2-(2-Fluorobenzylidene)hydrazineyl)-2-oxoethyl)thio)-4-oxoquinazolin-3(4H)-yl)ethyl)benzenesulfonamide] | 274 | 35.8 | 1.56 | 276 to 277 | 13.91 | 1.81 | 19.7 nM | 11.96 | 22.9 |
| NS(=O)(=O)c1ccc(CCn2c(SCC(=O)NN=Cc3ccc(F)cc3)nc3ccccc3c2=O)cc1 [Compound 11, 4-(2-(2-((2-(2-(4-Fluorobenzylidene)hydrazineyl)-2-oxoethyl)thio)-4-oxoquinazolin-3(4H)-yl)ethyl)benzenesulfonamide] | 132 | 49.5 | 3.13 | 292 to 293 | 8.57 | 3.21 | 15.4 nM | 8.35 | 15.8 |
| Cc1ccccc1C=NNC(=O)CSc1nc2ccccc2c(=O)n1CCc1ccc(S(N)(=O)=O)cc1 [Compound 12, 4-(2-(2-((2-(2-(2-Methylbenzylidene)hydrazineyl)-2-oxoethyl)thio)-4-oxoquinazolin-3(4H)-yl)ethyl)benzenesulfonamide] | 338 | 69.4 | 1.09 | 239 to 240 | 11.41 | 2.34 | 29.6 nM | 5.31 | 63.5 |
| NS(=O)(=O)c1ccc(CCn2c(SCC(=O)NN=Cc3ccccc3[N+](=O)[O-])nc3ccccc3c2=O)cc1 [Compound 13, 4-(2-(2-((2-(2-(2-Nitrobenzylidene)hydrazineyl)-2-oxoethyl)thio)-4-oxoquinazolin-3(4H)-yl)ethyl)benzenesulfonamide] | 992 | 569 | 26.60 | 288 to 289 | 16.95 | 9.73 | 58.5 nM | 46.34 | 21.4 |
| NS(=O)(=O)c1ccc(CCn2c(SCC(=O)NN=Cc3ccc([N+](=O)[O-])cc3)nc3ccccc3c2=O)cc1 [Compound 14, 4-(2-(2-((2-(2-(4-Nitrobenzylidene)hydrazineyl)-2-oxoethyl)thio)-4-oxoquinazolin-3(4H)-yl)ethyl)benzenesulfonamide] | 635 | 221 | 7.23 | 296 to 297 | 23.62 | 8.20 | 26.9 nM | 20.83 | 30.5 |
| CN(C)c1ccc(C=NNC(=O)CSc2nc3ccccc3c(=O)n2CCc2ccc(S(N)(=O)=O)cc2)cc1 [Compound 15, 4-(2-(2-((2-(2-(4-(Dimethylamino)benzylidene)hydrazineyl)-2-oxoethyl)thio)-4-oxoquinazolin-3(4H)-yl)ethyl)benzenesulfonamide] | 582 | 82.1 | 12.07 | 280 to 281 | 6.56 | 0.92 | 89.1 nM and 88.6 nM | 85.58 | 6.8 |
| NS(=O)(=O)c1ccc(CCn2c(SCC(=O)NN=Cc3cccnc3)nc3ccccc3c2=O)cc1 [Compound 16, 4-(2-(4-Oxo-2-((2-oxo-2-(2-(pyridin-3-ylmethylene)hydrazineyl)ethyl)thio)quinazolin-3(4H)-yl)ethyl)benzenesulfonamide] | 208 | 23.8 | 1.14 | 263 to 264 | 5.5 | 0.63 | 37.8 nM | 10.0 | 20.8 |
| CC(=NNC(=O)CSc1nc2ccccc2c(=O)n1CCc1ccc(S(N)(=O)=O)cc1)c1ccccc1 [Compound 17, 4-(2-(4-Oxo-2-((2-oxo-2-(2-(1-phenylethylidene)hydrazineyl)ethyl)thio)quinazolin-3(4H)-yl)ethyl)benzenesulfonamide] | 124 | 67.5 | 5.31 | 260 to 261 | 2.23 | 1.21 | 55.7 nM | 9.78 | 12.7 |
| CC(=NNC(=O)CSc1nc2ccccc2c(=O)n1CCc1ccc(S(N)(=O)=O)cc1)c1cccnc1 [Compound 27, 4-(2-(4-Oxo-2-((2-oxo-2-(2-(1-(pyridin-3-yl)ethylidene)hydrazineyl)ethyl)thio)quinazolin-3(4H)-yl)ethyl)benzenesulfonamide] | 238 | 10.8 | 0.31 | – | 7.07 | 0.32 | 33.7 nM | 6.87 | 34.7 |
